Assay results: PMC8253137, “Microbiota-derived butyrate is an endogenous HIF prolyl hydroxylase inhibitor” (Gut Microbes, 2021)
Entries after “also recorded” stand apart in the source; their conditions may differ.

Assays:
[1] = molecular target: PHD2_181-402 (Homo sapiens, UniProt Q9GZT9); assay: WaterLOGSY 1D NMR binding; conditions: for binding to PHD2_181-402 (WaterLOGSY signal): 10 mM ligand, 25 μM PHD2_181-402
Source text: Next, we established whether butyrate binds directly to PHD2_181-402 using 1D WaterLOGSY NMR.[28] This method enables sensitive and robust detection of binding (dissociation constants as weak as μM to low mM) based on the magnetization transfer between water molecules, proteins, and ligands of interest in close proximity via dipolar proton–proton cross-relaxation (nuclear Overhauser effect, NOE). […] Binding and non-binding ligands can be distinguished in a WaterLOGSY spectrum via their opposite signs in relation to water for their corresponding peaks.
Following an established protocol, all NMR analyses were performed using PHD2_181-402 and the diamagnetic element (Zn^2+) rather than a paramagnetic element such as Fe^2+ that would result in inhibitive signal reduction or loss due to fast relaxation induced by the unpaired electron.[63]
Water-Ligand Observed via Gradient SpectroscopY (WaterLOGSY): Measurements were carried out on a 600 MHz triple-resonance Bruker cryoprobe spectrometer.[28] Selective water inversion was achieved using an iBURP shaped pulse with 15 ms length and an inversion bandwidth of 0.4 ppm. The mixing time was set to 1 s, and the water was suppressed using double Watergate. 1024 scans were acquired with an interscan delay of 2 s. The sample concentration was 25 µM of PHD2_181-402 mixed with 10 mM of the different ligands in NMR buffer (Tris 50 mM, NaCl 20 mM, ZnCl2 100 μM) at pH 6.5.

[2] = test system: murine colon tissue; assay: Rectal gavage in antibiotic-treated SCFA-depleted mice; format: in vivo; conditions: after antibiotics
Description: C57BL/6 mice were purchased from Jackson Laboratories. Animals were maintained and bred in standard housing conditions under 24 h/day, 7 days/week veterinary care available at the University of Colorado Anschutz Medical Campus (AMC) animal facility. All animal procedures were reviewed and approved by the Institutional Animal Care and Use Committee at AMC. 8 to 10-week-old male and female mice were pre-administered an antibiotic cocktail consisting of 1 mg/mL ampicillin, gentamicin, and neomycin, 0.5 mg/mL vancomycin, and 0.25 mg/mL metronidazole for 5 d ad libitum in addition to water control mice. Mice were then given 200 µL of tributyrin daily for three days using reusable feeding needles (18060–20, Fine Science Tools). On the third day, 4 h prior to sacrifice, select mice given tributyrin were rectally given 100 μL of 60 mM MCPA with plastic gavage tubes (FTP-20-38-50, Instech) inserted 1 cm into the rectum without surgical lubricant. Whole colon tissue at the site of the rectal gavage was collected for metabolite analysis, while colon whole tissue and epithelial scrapings upstream from the gavage site was collected for RNA and protein analysis. In the second butyrate reconstitution experiment, mice were rectally given 100 μL of 100 mM butyrate, 100 mM butyrate with 10 mM MCPA, 1.5 mM IOX2, or PBS control under anesthesia. Mice were then sacrificed 1 h after rectal supplementation and colon tissues collected for metabolite, mRNA, and protein analysis from the site of the rectal gavage.
TRIzol® reagent (ThermoFisher Scientific) was used to isolate total RNA from T84 cells. Mouse colon tissue samples were harvested into RNAlater™ (Invitrogen) and stored at 4°C for 48 h. Total RNA was isolated from the tissues using RNeasy Plus Mini Kit (Qiagen). cDNA was prepared using the iScript cDNA Synthesis Kit (Bio-Rad). Quantitative PCR analysis was performed using the Power SYBR™ Green master mix (Applied Biosystems) in a thermocycler. Fold change in expression of target mRNA relative to β-actin (ACTB) mRNA was calculated using the delta-delta Ct method. Primer sequences used are as follows: hBNIP3 – forward, 5′- […] −3′, reverse, 5′- […] −3′; hBNIP3L – forward, 5′- […] −3′, reverse, 5′- […] −3′; hGLUT1 – forward, 5′- […] −3′, reverse, 5′- […] −3′; hACTB – forward, 5′- […]-3′, reverse, 5′- […]-3′; mBnip3 – forward, 5′- […] −3′, reverse, 5′- […] −3′; mBnip3l – forward, 5′- […] −3′, reverse, 5′- […] −3′; mGlut1 – forward, 5′- […] −3′, reverse, 5′- […] −3′; and mActb – forward, 5′- […] −3′, reverse, 5′- […] −3′.
T84 cells were rinsed with PBS and collected and lysed in 200 µL of radioimmunoprecipitation assay (RIPA, 50 mM Tris-HCl pH 8.0, 1 mM EDTA, 1% Triton X-100, […], 0.5% sodium deoxycholate, 150 mM NaCl) buffer with protease inhibitors on ice. Mouse colon samples were harvested into 350 µL of RIPA buffer and flash frozen in liquid nitrogen. Samples were homogenized by sonication, and insoluble materials removed by centrifugation at 10,000 g for 5 min at 4°C. Protein quantity of the supernatant was determined using the Bradford reagent. Laemmli sample buffer was added to each sample. Samples (20 µg) were run and separated on 8% SDS-PAGE gels and transferred to polyvinylidene fluoride (PVDF) membranes. Membranes were blocked overnight at 4°C in Tris-buffered saline with 1% Tween-20 (TBS-T) and 5% milk. […]

Chain of PHD2_181-402 (Q9GZT9 181-402): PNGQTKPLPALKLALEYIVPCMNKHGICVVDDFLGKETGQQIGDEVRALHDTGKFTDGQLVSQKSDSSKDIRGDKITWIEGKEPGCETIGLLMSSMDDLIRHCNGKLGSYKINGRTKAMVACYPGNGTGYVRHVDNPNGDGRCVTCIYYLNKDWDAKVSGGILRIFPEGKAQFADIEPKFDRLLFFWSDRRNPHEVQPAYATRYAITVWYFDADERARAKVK

binding to PHD2_181-402 (WaterLOGSY signal) ([1]; listed as Butyric acid): indicating binding
Compound: CCCC(=O)O [Butyrate]
binding to the 2-OG and PHD2_181-402 complex (WaterLOGSY) ([1]; 10 mM butyrate, 25 μM PHD2_181-402, with 150 μM 2-OG): could not bind; also recorded: absence of binding
binding to PHD2_181-402 (WaterLOGSY signal) [1]: clear positive signal, indicative of binding
mRNA expression of HIF-1α targets Bnip3, Bnip3l, Glut1 ([2]; colon tissue, rectal 100 mM butyrate or 1.5 mM IOX2, 1 h): rescued
mRNA expression of HIF-1α targets Bnip3, Bnip3l, Glut1, butyrate with MCPA ([2]; colon tissue, rectal 100 mM butyrate with 10 mM MCPA, 1 h): rescued
colon tissue 2-OG levels ([2]; rectal 100 mM butyrate or 1.5 mM IOX2, 1 h): rescued
